Assay: mn = molality of the nth substance listed, in mol/kg
Settings: 75 kPa, Liquid; for viscosity: Capillary tube (Ostwald / Ubbelohde) method; for speed of sound: Frequency=3 MHz, Single path-length method; for mass density: Vibrating tube method

NCCCCCC(=O)O [6-aminohexanoic acid] + O
Settings	mass density [kg/m3]	speed of sound [m/s]	viscosity [mPa·s]
288.15 K, m1 = 0.1386	1002.94	1484.1	1.237
288.15 K, m1 = 0.2786	1006.69	1501.7	1.324
288.15 K, m1 = 0.4193	1010.34	1518.8	1.43
288.15 K, m1 = 0.5602	1013.86	1535.5	1.543
288.15 K, m1 = 0.7027	1017.3	1551.7	1.676
288.15 K, m1 = 0.8448	1020.62	1566.7	1.804
288.15 K, m1 = 0.9881	1023.86	1581.4	1.945
288.15 K, m1 = 1.132	1026.99	1595.3	2.103
293.15 K, m1 = 0.1386	1001.94	1499.7	1.088
293.15 K, m1 = 0.2786	1005.61	1516.3	1.158
293.15 K, m1 = 0.4193	1009.17	1532.6	1.25
293.15 K, m1 = 0.5602	1012.62	1548.3	1.344
293.15 K, m1 = 0.7027	1016.01	1563.8	1.459
293.15 K, m1 = 0.8448	1019.28	1578.3	1.566
293.15 K, m1 = 0.9881	1022.48	1592.5	1.689
293.15 K, m1 = 1.132	1025.6	1606	1.825
298.15 K, m1 = 0.1386	1000.74	1513	0.962
298.15 K, m1 = 0.2786	1004.36	1529	1.025
298.15 K, m1 = 0.4193	1007.89	1544.6	1.103
298.15 K, m1 = 0.5602	1011.3	1559.8	1.183
298.15 K, m1 = 0.7027	1014.65	1574.6	1.277
298.15 K, m1 = 0.8448	1017.88	1588.6	1.377
298.15 K, m1 = 0.9881	1021.04	1602.2	1.481
298.15 K, m1 = 1.132	1024.11	1615.3	1.59
303.15 K, m1 = 0.1386	999.323	1524.5	0.865
303.15 K, m1 = 0.2786	1002.91	1539.8	0.916
303.15 K, m1 = 0.4193	1006.4	1554.7	0.984
303.15 K, m1 = 0.5602	1009.78	1569.1	1.062
303.15 K, m1 = 0.7027	1013.08	1583.2	1.137
303.15 K, m1 = 0.8448	1016.26	1596.8	1.222
303.15 K, m1 = 0.9881	1019.37	1610	1.314
303.15 K, m1 = 1.132	1022.39	1622.5	1.423
308.15 K, m1 = 0.1386	997.675	1534.6	0.781
308.15 K, m1 = 0.2786	1001.24	1549.2	0.821
308.15 K, m1 = 0.4193	1004.7	1563.5	0.881
308.15 K, m1 = 0.5602	1008.06	1577.4	0.949
308.15 K, m1 = 0.7027	1011.35	1591	1.02
308.15 K, m1 = 0.8448	1014.52	1603.9	1.096
308.15 K, m1 = 0.9881	1017.62	1616.4	1.177
308.15 K, m1 = 1.132	1020.64	1628.4	1.267

Reference: the NIST ThermoML archive (doi:10.1021/acs.jced.8b00236)
